Source: PubChem BioAssay (NCI)
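Tested at 5 concentrations; 48 h exposure; 96-well plates; endpoints linearly interpolated, else capped at highest concentration. At the TGI there is no net growth.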

Legend:
Experiment in all cases: DTP human tumour cell line panel, 48 h
SK-OV-3 ovarian = test system: SK-OV-3 ovarian
SF-539 CNS = test system: SF-539 CNS
HOP-18 NSCLC = test system: HOP-18 NSCLC
SN12C renal = test system: SN12C renal
HOP-62 NSCLC = test system: HOP-62 NSCLC
ACHN renal = test system: ACHN renal
SK-MEL-28 melanoma = test system: SK-MEL-28 melanoma
LOX IMVI melanoma = test system: LOX IMVI melanoma
EKVX NSCLC = test system: EKVX NSCLC
HOP-92 NSCLC = test system: HOP-92 NSCLC
DMS 114 small cell lung = test system: DMS 114 small cell lung
786-0 renal = test system: 786-0 renal
XF 498 CNS = test system: XF 498 CNS
SK-MEL-5 melanoma = test system: SK-MEL-5 melanoma
HCT-15 colon = test system: HCT-15 colon
UACC-257 melanoma = test system: UACC-257 melanoma
SNB-19 CNS = test system: SNB-19 CNS
NCI-H460 lung = test system: NCI-H460 lung
SW-620 colon = test system: SW-620 colon
HT29 colon = test system: HT29 colon
IGROV1 ovarian = test system: IGROV1 ovarian
SNB-78 CNS = test system: SNB-78 CNS
OVCAR-8 ovarian = test system: OVCAR-8 ovarian
KM20L2 colon = test system: KM20L2 colon
SF-295 CNS = test system: SF-295 CNS
UO-31 renal = test system: UO-31 renal
OVCAR-5 ovarian = test system: OVCAR-5 ovarian
LXFL 529 NSCLC = test system: LXFL 529 NSCLC
SF-268 CNS = test system: SF-268 CNS
KM12 colon = test system: KM12 colon
OVCAR-3 ovarian = test system: OVCAR-3 ovarian
RPMI-8226 leukemia = test system: RPMI-8226 leukemia
NCI-H522 lung = test system: NCI-H522 lung
DLD-1 colon = test system: DLD-1 colon
UACC-62 melanoma = test system: UACC-62 melanoma
MOLT-4 leukemia = test system: MOLT-4 leukemia
HCC-2998 colon = test system: HCC-2998 colon
SK-MEL-2 melanoma = test system: SK-MEL-2 melanoma
HL-60(TB) leukemia = test system: HL-60(TB) leukemia
CCRF-CEM leukemia = test system: CCRF-CEM leukemia
CAKI-1 renal = test system: CAKI-1 renal
U251 CNS = test system: U251 CNS
NCI-H23 lung = test system: NCI-H23 lung
K-562 leukemia = test system: K-562 leukemia
M19-MEL melanoma = test system: M19-MEL melanoma
HCT-116 colon = test system: HCT-116 colon
OVCAR-4 ovarian = test system: OVCAR-4 ovarian
RXF 393 renal = test system: RXF 393 renal
SR leukemia = test system: SR leukemia
RXF-631 renal = test system: RXF-631 renal
A549 NSCLC = test system: A549 NSCLC
M14 melanoma = test system: M14 melanoma
MALME-3M melanoma = test system: MALME-3M melanoma
TK-10 renal = test system: TK-10 renal
NCI-H226 lung = test system: NCI-H226 lung
A498 renal = test system: A498 renal
COLO 205 colon = test system: COLO 205 colon
DMS 273 small cell lung = test system: DMS 273 small cell lung
SNB-75 CNS = test system: SNB-75 CNS

Work on `CCc1ccccc1N1C(=O)C(=O)C(c2nc3ccccc3s2)C(=O)C1=O` yielded a TGI (SK-OV-3 ovarian) greater than 100 µM, a TGI (SF-539 CNS) greater than 100 µM and a TGI (HOP-18 NSCLC) greater than 100 µM. The TGI (SN12C renal) was greater than 100 µM, the TGI (HOP-62 NSCLC) was greater than 100 µM and the TGI (ACHN renal) was greater than 100 µM. For the same compound, the TGI (SK-MEL-28 melanoma) was greater than 100 µM, the TGI (LOX IMVI melanoma) was greater than 100 µM and the TGI (EKVX NSCLC) was greater than 100 µM. For the same compound, the TGI (HOP-92 NSCLC) was greater than 100 µM, the TGI (DMS 114 small cell lung) was greater than 100 µM and the TGI (786-0 renal) was greater than 100 µM. The TGI (XF 498 CNS) was greater than 100 µM, the TGI (SK-MEL-5 melanoma) was greater than 100 µM and the TGI (HCT-15 colon) was greater than 100 µM. For the same compound, the TGI (UACC-257 melanoma) was greater than 100 µM, the TGI (SNB-19 CNS) was greater than 100 µM and the TGI (NCI-H460 lung) was greater than 100 µM. It also gave a TGI (SW-620 colon) greater than 100 µM, a TGI (HT29 colon) greater than 100 µM and a TGI (IGROV1 ovarian) greater than 100 µM. It also gave a TGI (SNB-78 CNS) greater than 100 µM, a TGI (OVCAR-8 ovarian) greater than 100 µM and a TGI (KM20L2 colon) greater than 100 µM. The TGI (SF-295 CNS) was greater than 100 µM, the TGI (UO-31 renal) was greater than 100 µM and the TGI (OVCAR-5 ovarian) was greater than 100 µM. It also gave a TGI (LXFL 529 NSCLC) greater than 100 µM, a TGI (SF-268 CNS) greater than 100 µM and a TGI (KM12 colon) greater than 100 µM. It also gave a TGI (OVCAR-3 ovarian) greater than 100 µM, a TGI (RPMI-8226 leukemia) greater than 100 µM and a TGI (NCI-H522 lung) greater than 100 µM. The TGI (DLD-1 colon) was greater than 100 µM, the TGI (UACC-62 melanoma) was greater than 100 µM and the TGI (MOLT-4 leukemia) was greater than 100 µM. It also gave a TGI (HCC-2998 colon) greater than 100 µM, a TGI (SK-MEL-2 melanoma) greater than 100 µM and a TGI (HL-60(TB) leukemia) greater than 100 µM. The TGI (CCRF-CEM leukemia) was greater than 100 µM, the TGI (CAKI-1 renal) was greater than 100 µM and the TGI (U251 CNS) was greater than 100 µM. The TGI (NCI-H23 lung) was greater than 100 µM, the TGI (K-562 leukemia) was greater than 100 µM and the TGI (M19-MEL melanoma) was greater than 100 µM. The TGI (HCT-116 colon) was greater than 100 µM, the TGI (OVCAR-4 ovarian) was greater than 100 µM and the TGI (RXF 393 renal) was greater than 100 µM. For the same compound, the TGI (SR leukemia) was greater than 100 µM, the TGI (RXF-631 renal) was greater than 100 µM and the TGI (A549 NSCLC) was greater than 100 µM. It also gave a TGI (M14 melanoma) greater than 100 µM, a TGI (MALME-3M melanoma) greater than 100 µM and a TGI (TK-10 renal) greater than 100 µM. It also gave a TGI (NCI-H226 lung) greater than 100 µM.
`COC(=O)CCC(NC(=S)N/N=C(\C)c1ccco1)C(=O)OC` (stereo not given) showed a TGI (SK-OV-3 ovarian) greater than 100 µM, a TGI (SF-539 CNS) greater than 100 µM and a TGI (HOP-18 NSCLC) greater than 100 µM. It also gave a TGI (SN12C renal) greater than 100 µM, a TGI (HOP-62 NSCLC) greater than 100 µM and a TGI (ACHN renal) greater than 100 µM. The TGI (SK-MEL-28 melanoma) was greater than 100 µM, the TGI (LOX IMVI melanoma) was greater than 100 µM and the TGI (EKVX NSCLC) was greater than 100 µM. For the same compound, the TGI (DMS 114 small cell lung) was greater than 100 µM, the TGI (786-0 renal) was greater than 100 µM and the TGI (XF 498 CNS) was greater than 100 µM. For the same compound, the TGI (SK-MEL-5 melanoma) was greater than 100 µM, the TGI (HCT-15 colon) was greater than 100 µM and the TGI (UACC-257 melanoma) was greater than 100 µM. It also gave a TGI (SNB-19 CNS) greater than 100 µM, a TGI (NCI-H460 lung) greater than 100 µM and a TGI (SW-620 colon) greater than 100 µM. For the same compound, the TGI (HT29 colon) was greater than 100 µM, the TGI (IGROV1 ovarian) was greater than 100 µM and the TGI (SNB-78 CNS) was greater than 100 µM. The TGI (OVCAR-8 ovarian) was greater than 100 µM, the TGI (KM20L2 colon) was greater than 100 µM and the TGI (SF-295 CNS) was greater than 100 µM. It also gave a TGI (A498 renal) greater than 100 µM, a TGI (COLO 205 colon) greater than 100 µM and a TGI (UO-31 renal) greater than 100 µM. The TGI (OVCAR-5 ovarian) was greater than 100 µM, the TGI (LXFL 529 NSCLC) was greater than 100 µM and the TGI (DMS 273 small cell lung) was greater than 100 µM. For the same compound, the TGI (SF-268 CNS) was greater than 100 µM, the TGI (KM12 colon) was greater than 100 µM and the TGI (OVCAR-3 ovarian) was greater than 100 µM. For the same compound, the TGI (NCI-H522 lung) was greater than 100 µM, the TGI (DLD-1 colon) was greater than 100 µM and the TGI (SNB-75 CNS) was greater than 100 µM. For the same compound, the TGI (UACC-62 melanoma) was greater than 100 µM, the TGI (HCC-2998 colon) was greater than 100 µM and the TGI (SK-MEL-2 melanoma) was greater than 100 µM. For the same compound, the TGI (HL-60(TB) leukemia) was greater than 100 µM, the TGI (CCRF-CEM leukemia) was greater than 100 µM and the TGI (U251 CNS) was greater than 100 µM. It also gave a TGI (NCI-H23 lung) greater than 100 µM, a TGI (K-562 leukemia) greater than 100 µM and a TGI (M19-MEL melanoma) greater than 100 µM. For the same compound, the TGI (HCT-116 colon) was greater than 100 µM, the TGI (OVCAR-4 ovarian) was greater than 100 µM and the TGI (RXF 393 renal) was greater than 100 µM. For the same compound, the TGI (RXF-631 renal) was greater than 100 µM, the TGI (A549 NSCLC) was greater than 100 µM and the TGI (M14 melanoma) was greater than 100 µM. The TGI (MALME-3M melanoma) was greater than 100 µM, the TGI (TK-10 renal) was greater than 100 µM and the TGI (NCI-H226 lung) was greater than 100 µM.
Work on `C[C@]12CCC3[C@@H](CC[C@@H]4c5nonc5CC[C@]34C)C1CCC2=O` (stereo not given in full) yielded a TGI (SK-OV-3 ovarian) greater than 100 µM, a TGI (SF-539 CNS) of 45.9 µM and a TGI (HOP-18 NSCLC) greater than 100 µM. For the same compound, the TGI (SN12C renal) was 47.3 µM, the TGI (HOP-62 NSCLC) was greater than 100 µM and the TGI (ACHN renal) was 77.7 µM. The TGI (SK-MEL-28 melanoma) was 63.8 µM, the TGI (LOX IMVI melanoma) was 39.5 µM and the TGI (EKVX NSCLC) was 83.1 µM. For the same compound, the TGI (HOP-92 NSCLC) was 51.5 µM, the TGI (DMS 114 small cell lung) was 53.9 µM and the TGI (786-0 renal) was 64.3 µM. The TGI (XF 498 CNS) was 44.4 µM, the TGI (SK-MEL-5 melanoma) was 31.4 µM and the TGI (HCT-15 colon) was greater than 100 µM. It also gave a TGI (UACC-257 melanoma) of 40.4 µM, a TGI (SNB-19 CNS) greater than 100 µM and a TGI (NCI-H460 lung) of 39.7 µM. For the same compound, the TGI (SW-620 colon) was greater than 100 µM, the TGI (HT29 colon) was 41.1 µM and the TGI (IGROV1 ovarian) was greater than 100 µM. The TGI (SNB-78 CNS) was 99.7 µM, the TGI (OVCAR-8 ovarian) was greater than 100 µM and the TGI (KM20L2 colon) was greater than 100 µM. For the same compound, the TGI (SF-295 CNS) was 79.3 µM, the TGI (A498 renal) was 68.2 µM and the TGI (COLO 205 colon) was 33.3 µM. The TGI (UO-31 renal) was 39 µM, the TGI (OVCAR-5 ovarian) was greater than 100 µM and the TGI (LXFL 529 NSCLC) was 59.8 µM. It also gave a TGI (DMS 273 small cell lung) of 47.1 µM, a TGI (SF-268 CNS) greater than 100 µM and a TGI (KM12 colon) of 50.2 µM. For the same compound, the TGI (OVCAR-3 ovarian) was 40.4 µM, the TGI (RPMI-8226 leukemia) was 44 µM and the TGI (NCI-H522 lung) was 50.1 µM. For the same compound, the TGI (SNB-75 CNS) was 93.6 µM, the TGI (UACC-62 melanoma) was 52.3 µM and the TGI (MOLT-4 leukemia) was 61 µM. For the same compound, the TGI (SK-MEL-2 melanoma) was 56.5 µM, the TGI (HL-60(TB) leukemia) was 38.9 µM and the TGI (CCRF-CEM leukemia) was 61.3 µM. It also gave a TGI (CAKI-1 renal) of 95.5 µM, a TGI (U251 CNS) of 32.5 µM and a TGI (NCI-H23 lung) of 92.5 µM. It also gave a TGI (K-562 leukemia) greater than 100 µM, a TGI (M19-MEL melanoma) of 52.8 µM and a TGI (HCT-116 colon) of 31.7 µM. It also gave a TGI (OVCAR-4 ovarian) of 84 µM, a TGI (RXF 393 renal) of 78.3 µM and a TGI (RXF-631 renal) greater than 100 µM. The TGI (A549 NSCLC) was 92.4 µM, the TGI (M14 melanoma) was 37 µM and the TGI (MALME-3M melanoma) was 52.6 µM. For the same compound, the TGI (TK-10 renal) was greater than 100 µM and the TGI (NCI-H226 lung) was 62.7 µM.
